This is an account of results in patent publication US20240353338A1 (priority 2023, published 2024).

For one assay, the target named is T1, transthyretin (TTR) (Homo sapiens, UniProt P02766).
T1 construct: purchased Sigma Aldrich P1742
Type of assay: binding.

For the next assay, the target named is SARS-CoV-2 M^pro (Severe acute respiratory syndrome coronavirus 2, UniProt P0DTD1). Kind of assay: TRIP screening of M^pro inhibitor binding and binding strength/affinity. The settings on record: 1 μM vs 5 μM M^pro mixes.
For another assay, the target named is streptavidin (Streptomyces avidinii, UniProt P22629). It counts as binding.
Sequence of streptavidin (P22629 37-163): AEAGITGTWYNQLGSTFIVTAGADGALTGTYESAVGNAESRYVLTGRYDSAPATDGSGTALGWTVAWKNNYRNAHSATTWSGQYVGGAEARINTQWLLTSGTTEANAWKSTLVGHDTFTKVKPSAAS

On to `O=[N+]([O-])c1ccc(O)c([N+](=O)[O-])c1` [DNP, 2,4 dinitrophenol], for which, on transthyretin (TTR), the “binding between DNP and TTR over time (PC2 of 1230-1350 cm^-1 region)” value was “enhanced over time”.

`Nc1nnc(Sc2ncc([N+](=O)[O-])s2)s1` [Halicin]: the “affinity for monomer M^pro versus dimer / dimer-monomer M^pro mix” value on SARS-CoV-2 M^pro is “higher affinity for binding monomeric M^pro”.

With `O=C(O)CCCC[C@@H]1SC[C@@H]2NC(=O)N[C@@H]21` [biotin], the “binding of biotin to streptavidin (Trp N-H band shift 877 to 870 cm^-1)” value on streptavidin is given as “strong hydrogen bonding occurred”.
